According to patent US20100323890A1, “METHOD FOR IMPROVING THE RESISTANCE OF PLANTS TO STRESS AND CORRESPONDING PRODUCTS” (priority 2007, published 2010):

Test system: Arabidopsis thaliana
Assay: Arabidopsis thaliana seedling growth on culture medium containing 1 μM atrazine (atrazine tolerance)
Assay type: in vivo
Details: 15 days of incubation
Experimental: In this context, a mixture of sucrose and putrescine were tested. […] For a first control, no carbohydrate or polyamine were added to the culture medium. For a second control, only sucrose, at a rate of 3%, which is equivalent to a concentration of 87 millimolar, was added thereto. Finally, for a test according to the present invention, sucrose, at a rate of 3% and putrescine, at a rate of 3 to 6 mM, were added to the culture medium. The Petri dishes were stored for 48 hrs at 4° C. and transferred to 22° C. for a photoperiod of 16 hours per day at 4500 lux. The parameters characterizing the plant growth were referenced after 15 days of incubation: the biomass (% fresh weight) and chlorophyll (μg/seedling) produced were determined; the development of the main root (cm) and the secondary root system (primordia/seedlings) were recorded.

| SMILES | seedling development in the presence of atrazine (FIG. 1) (no carbohydrate or polyamine added) | effect on atrazine inhibition / atrazine resistance, by size of the seedlings (FIG. 1) |
| --- | --- | --- |
| CCNc1nc(Cl)nc(NC(C)C)n1 [atrazine, 2-chloro-4-ethylamino-6-isopropylamine-1,3,5-triazine] | unable to develop the photosynthetic apparatus | – |
| OC[C@H]1O[C@@](CO)(O[C@H]2O[C@H](CO)[C@@H](O)[C@H](O)[C@H]2O)[C@@H](O)[C@@H]1O [sucrose] | – | makes it possible to lift the atrazine inhibition effect |
